According to publication PMC10799935, “Discovery of a peripheral 5HT2A antagonist as a clinical candidate for metabolic dysfunction-associated steatohepatitis” (Nature Communications, 2024):
Where “and” joins values, the source holds several entries; their conditions need not be identical. Equal entries are not always repeated.

How the values were obtained:
[1] = Hepatocyte stability test, human; type: in vitro ADME; conditions: both sexes, cryopreserved hepatocytes, pH 7.4, read-out: Hepatocyte stability (% remaining after 3 h)
Protocol: (§1) Hepatocyte incubations for the test compound (10 μM final concentration, n = 2 per each time point) were carried out in mouse, rat, dog, monkey and human cryopreserved hepatocytes, resuspended at a density of 0.5 million cells/ml of modified Krebs-Henseleit buffer (KHB). The information regarding the hepatocytes used in the experiment is as follows: liverPool® 10-donor mixed gender human (BioIVT, Cat.No. X008001, lot EAV), male cynomolgus monkey (BioIVT, Cat.No. M00305, lot COJ), male Beagle dog (BioIVT, Cat.No. M00205, lot USY), male Sprague Dawley rat (BioIVT, Cat.No. M00005, lot TQE) and male CD1 mouse (BioIVT, Cat.No.005052, lot LFF). In addition, the compound was also incubated with blank KHB. The final concentration of solvent (DMSO) was 0.1% of the final volume. The incubations were performed for 3 hours at 37°C and pH 7.4. Reactions were terminated at 0 and 180 minutes by the addition of 3 volumes of stop solution (acetonitrile/methanol (2:1, v/v) containing internal standard–diclofenac at 100 ng/ml). Samples (compound spiked buffer and compound spiked hepatocytes, as well as blank samples, i.e. hepatocytes with the same DMSO%) were then centrifuged and aliquots were transferred to 96-deep micronic tubes and frozen at -80 °C until LC-MS/MS analysis. […]

[2] = Hepatocyte stability test, mouse; type: in vitro ADME; conditions: male, CD1, cryopreserved hepatocytes, pH 7.4, read-out: Hepatocyte stability (% remaining after 3 h)
Protocol: as §1

HFD-fed C57BL/6J mice = assay: DIO mice: body composition (fat and lean mass); type: in vivo, mouse; design: Body Mass RAW Fluid / Body Mass RAW Fat body mass / Body Mass RAW Lean body mass / Fat Body: Mean Diff., Vehicle vs. 11c / Lean Body: Mean Diff., Vehicle vs. 11c: unit not given here; conditions: for Fat Body: Mean Diff., Vehicle vs. 11c / Lean Body: Mean Diff., Vehicle vs. 11c: Dunnett's test; for Body Mass Analysis (%) Fat body mass / Body Mass Analysis (%) Lean body mass / Body Mass RAW Fat body mass / Body Mass RAW Lean body mass / Body Weight (body mass sheet) / Body Mass Analysis (%) Fluid / Body Mass RAW Fluid: DIO mice, individual mice and group Mean; for Body Weight (body mass sheet): in g (unit assumed)
From the text: For in vivo efficacy in DIO models and CDAHFD models, the experimental protocol for this study was approved by the Institutional Animal Care and Use Committee (IACUC) at the Korea Advanced Institute of Science and Technology (No. KA2023-027-v2) or Kyungpook National University (No. KNU-20200134). All relevant ethical guidelines were followed. C57BL/6 J male mice (11 weeks old) were purchased from the Charles River Japan and were housed in a specific pathogen-free barrier facility under a regular light-dark cycle (12-hour light/12-hour dark) at 24°C with 40–60% humidity. Food (standard chow diet, Envigo, 2018S) and water were provided ad libitum. […] Mice were euthanized by the method of cervical dislocation. The measurement of lean and fat mass in live mice was performed by a body composition analyzer (LF50 BCA-analyzer, Bruker). After 6 h of fasting, mice were sacrificed, and tissue samples were obtained.

[3] = system: CDAHFD-fed C57BL/6 J mice; assay: CDAHFD mice: food intake; type: in vivo, mouse; conditions: amongst CDAHFD-fed groups, 12 weeks
From the text: C57BL/6 J male mice were purchased from the Japan SLC. Inc (Hamamatsu, Japan). Mice (5 weeks old) were fed Teklad Certitied Irradiated Global 18% protein rodent diet purchased from Dooyeol Biotech Co. Ltd (Seoul, South Korea) during the acclimation period. The liver fibrosis/inflammation-induced groups were CDAHFD-fed (A06071302, Research diet). […] All animal experiments complied with the relevant ethical regulations.
Supplementary Figure 4. Food intake. Food intake of vehicle and CDAHFD-fed mice, two-way
ANOVA with the Holm-Sidak post hoc test. The data are presented as mean ± SD (n = 2 cages per
(1 picture or pasted object on this page, not shown here)

in vitro = conditions: rat, plasma

Cc1nc2n(c(=O)c1CCN1CCC(=C3c4ccc(Cl)cc4CCc4cccnc43)CC1)CCCC2O (stereo not drawn) [Compound 11c]
remaining at 3 h, 10 μM [1]: 94% | remaining at 3 h, 10 μM [2]: 75% | Fat Body: Mean Diff., Vehicle vs. 11c (HFD-fed C57BL/6J mice; 5mpk): 1.897 | Lean Body: Mean Diff., Vehicle vs. 11c (HFD-fed C57BL/6J mice; 5mpk): 3.43 | fat mass (HFD-fed C57BL/6J mice; 10 mpk daily oral gavage, 8 weeks, vs vehicle-treated mice): reduced | Fat Body: Mean Diff., Vehicle vs. 11c (HFD-fed C57BL/6J mice; 10mpk): 12.76 | Lean Body: Mean Diff., Vehicle vs. 11c (HFD-fed C57BL/6J mice; 10mpk): 4.653 | Body Mass Analysis (%) Fat body mass (HFD-fed C57BL/6J mice; 5mpk, 5 mg/kg): 34.69% | Body Mass Analysis (%) Lean body mass (HFD-fed C57BL/6J mice; 5mpk, 5 mg/kg): 52.41% | Body Mass Analysis (%) Fat body mass (HFD-fed C57BL/6J mice; 5mpk, 5 mg/kg, group mean): 34.7% | Body Mass Analysis (%) Lean body mass (HFD-fed C57BL/6J mice; 5mpk, 5 mg/kg, group mean): 52.4% | Body Mass RAW Fat body mass (HFD-fed C57BL/6J mice; 5mpk, 5 mg/kg, group mean): 15.9 | Body Mass RAW Lean body mass (HFD-fed C57BL/6J mice; 5mpk, 5 mg/kg, group mean): 23.8 | Body Weight (body mass sheet) (HFD-fed C57BL/6J mice; 5mpk, 5 mg/kg): 45.7 and 40.4 and 39.5 and 37 and 43.5 and 51 and 45.4 | Body Mass Analysis (%) Fluid (HFD-fed C57BL/6J mice; 5mpk, 5 mg/kg, mean): 6.8% | Body Mass RAW Fluid (HFD-fed C57BL/6J mice; 5mpk, 5 mg/kg, mean): 3.1 | Body Mass Analysis (%) Fat body mass (HFD-fed C57BL/6J mice; 5mpk, listed as 11C, 5 mg/kg): 42.9% and 30.1% and 27.5% and 28.0% and 34.3% and 39.1% and 41.1% | Body Mass Analysis (%) Fluid (HFD-fed C57BL/6J mice; 5mpk, listed as 11C, 5 mg/kg): 7.2% and 5.5% and 5.6% and 5.7% and 8.1% and 8.2% and 7.4% | Body Mass Analysis (%) Lean body mass (HFD-fed C57BL/6J mice; 5mpk, listed as 11C, 5 mg/kg): 50.9% and 41.8% and 44.8% and 51.8% and 63.0% and 63.1% and 51.4% | Body Mass RAW Fat body mass (HFD-fed C57BL/6J mice; 5mpk, listed as 11C, 5 mg/kg): 19.5 and 15.6 and 13.7 and 11.6 and 14.0 and 17.9 and 18.8 | Body Mass RAW Fluid (HFD-fed C57BL/6J mice; 5mpk, listed as 11C, 5 mg/kg): 3.3 and 2.8 and 2.4 and 3.7 and 3.4 | Body Mass RAW Lean body mass (HFD-fed C57BL/6J mice; 5mpk, listed as 11C, 5 mg/kg): 23.2 and 21.7 and 22.3 and 21.5 and 25.8 and 28.9 and 23.5 | Body Mass Analysis (%) Fluid (HFD-fed C57BL/6J mice; 10mpk, 10 mg/kg): 7.1% and 5.8% and 4.8% and 8.2% and 9.4% | Body Mass RAW Fat body mass (HFD-fed C57BL/6J mice; 10mpk, 10 mg/kg): 8.4 and 13.9 and 12.4 and 15.4 and 9.5 and 5.7 | Body Mass RAW Fluid (HFD-fed C57BL/6J mice; 10mpk, 10 mg/kg): 3.2 and 3.0 and 2.4 and 3.4 and 3.9 and 2.2 | Body Mass RAW Lean body mass (HFD-fed C57BL/6J mice; 10mpk, 10 mg/kg): 22.2 and 25.2 and 20.6 and 25.5 and 23.2 and 23.1 | Body Mass RAW Lean body mass (HFD-fed C57BL/6J mice; 10mpk, 10 mg/kg, group mean): 23.3 | Body Weight (body mass sheet) (HFD-fed C57BL/6J mice; 10mpk, 10 mg/kg): 35.7 and 43.1 and 36.3 and 45.2 and 38.2 and 33.4 | Body Weight (body mass sheet) (HFD-fed C57BL/6J mice; 10mpk, 10 mg/kg, mean): 38.7 | Body Mass Analysis (%) Fluid (HFD-fed C57BL/6J mice; 10mpk, 10 mg/kg, mean): 6.7% | Body Mass RAW Fat body mass (HFD-fed C57BL/6J mice; 10mpk, 10 mg/kg, mean): 10.9 | food intake [3]: no significant difference | remaining at 4 h (in vitro): > 99.9%
